Test results published in PMC12463027, “KRAS/ABHD17C/ALOX15B Axis Promotes Pancreatic Cancer Progression via Ferroptosis Evasion” (Advanced Science, 2025).
Values belong to the molecule of their own block, whether it stands above or below them.

What was measured:
p-ABHD17C = biological target: T1, p-ABHD17C (Homo sapiens, UniProt Q6PCB6); test: SPR (Biacore); co-IP in cells shows disruption of the ABHD17C/ALOX15B interaction; assay type: binding
T1 sequence (Q6PCB6 1-329): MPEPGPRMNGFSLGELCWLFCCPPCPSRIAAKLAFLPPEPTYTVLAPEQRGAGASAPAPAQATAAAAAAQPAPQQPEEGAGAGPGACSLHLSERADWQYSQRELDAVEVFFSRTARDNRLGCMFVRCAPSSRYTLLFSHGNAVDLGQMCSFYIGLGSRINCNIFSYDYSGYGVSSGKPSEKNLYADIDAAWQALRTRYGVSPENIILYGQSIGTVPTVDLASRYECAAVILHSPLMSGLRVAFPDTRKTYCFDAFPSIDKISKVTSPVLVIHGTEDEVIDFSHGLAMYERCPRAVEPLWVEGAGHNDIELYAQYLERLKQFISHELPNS

[1] = biological target: T2, ALOX15B immobilised for SPR (human, UniProt O15296 1-676); test: SPR; ALOX15B immobilised on a Series S Sensor Chip, DCAF10 as analyte; conditions: both partners purified
T2 construct: ALOX15B, human
T2 sequence (looked up): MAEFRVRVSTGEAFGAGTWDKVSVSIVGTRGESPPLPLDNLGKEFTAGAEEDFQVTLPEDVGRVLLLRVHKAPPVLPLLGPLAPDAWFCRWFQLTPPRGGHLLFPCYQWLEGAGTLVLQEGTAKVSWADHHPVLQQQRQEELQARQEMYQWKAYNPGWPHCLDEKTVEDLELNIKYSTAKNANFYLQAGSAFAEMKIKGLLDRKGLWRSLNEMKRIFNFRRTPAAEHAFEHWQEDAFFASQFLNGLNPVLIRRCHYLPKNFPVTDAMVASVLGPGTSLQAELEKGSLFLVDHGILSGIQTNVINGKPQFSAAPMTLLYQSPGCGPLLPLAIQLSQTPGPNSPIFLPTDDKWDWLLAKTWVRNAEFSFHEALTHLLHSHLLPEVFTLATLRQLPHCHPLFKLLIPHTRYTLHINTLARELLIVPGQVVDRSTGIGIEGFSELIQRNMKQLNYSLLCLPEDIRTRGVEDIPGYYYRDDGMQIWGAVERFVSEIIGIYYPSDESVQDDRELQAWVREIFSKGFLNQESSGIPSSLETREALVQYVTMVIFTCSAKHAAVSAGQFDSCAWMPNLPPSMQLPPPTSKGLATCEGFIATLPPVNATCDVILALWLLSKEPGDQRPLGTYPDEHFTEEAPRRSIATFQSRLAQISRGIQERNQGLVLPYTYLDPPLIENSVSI

Molecule: CO[C@]1(CC[C@@H](C)CO[C@@H]2O[C@H](CO)[C@@H](O)[C@H](O)[C@H]2O)O[C@H]2C[C@H]3[C@@H]4CC=C5C[C@@H](O[C@@H]6O[C@H](CO)[C@@H](O[C@@H]7O[C@@H](C)[C@H](O)[C@@H](O)[C@H]7O)[C@H](O)[C@H]6O[C@@H]6O[C@@H](C)[C@H](O)[C@@H](O)[C@H]6O)CC[C@]5(C)[C@H]4CC[C@]3(C)[C@H]2[C@@H]1C [methyl protodioscin]
Kd (p-ABHD17C): 4800 nM

Kd [1]: 6.96 nM
B1: recombinant DCAF10 (natural protein, UniProt Q5QP82 1-559, looked up)
chain: MFPFGPHSPGGDGSAGAGAEEPTPHEGQAAATGPPSPLHPGADATHPPPPARSPRRPGAPSLSPAPRSGELGLPGAPESSTASAPGEPSPPSPPCRRPGPDCRAKSRGRHGLGAGLGGPGARLFGWLKERSLGRGLFVDPARDNFRTMTSLYGSIHPADSVYLSTRTHGAVFNLEYSPDGSVLTVACEQTEVLLFDPISSKHIKTLSEAHEDCVNNIRFLDNRLFATCSDDTTIALWDLRKLNTKVCTLHGHTSWVKNIEYDTNTRLLVTSGFDGNVIIWDTNRYTEDGCPHKKFFHTRFLMRMRLTPDCSKMLISTSSGYLLILHDLDLTKSLEVGSYPILRARRTTSSSDLTTSSSSSGPRVSGSPCHHSDSNSSEKHMSRASQREGVSPRNSLEVVTPEVLGESDHGNCITSLQLHPKGWATLLRCSSNSDDEECTCVYEFQEGAPVRPVSPRCSLRLTHYIEEANVGRGYIKELCFSPDGRMISSPHGYGIRLLGFDKQCSELVDCLPKEASPLRVIRSLYSHNDVVLTTKFSPTHCQIASGCLSGRVSLYQPKF
notes: DCAF10, recombinant
